According to patent publication US9833497B2, “Human originated EGF domain proteins and use of the same” (CHENGDU SOURCEBIO LIMITED-LIABILITY COMPANY, priority 2013, dated 2017):

What was measured:
Assay type in all cases: cell-based
[1] = test system: E. coli DH5α; assay: Antibacterial activity: MIC and growth curve against E. coli DH5α in 96-well plate; conditions: minimal inhibitory concentration against E. coli DH5α; 96-well plate, 5×10^5 CFU/mL, 37° C., judged after 8 h
Outline: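 MIC taken as lowest protein level with no bacterial growth, tracked by A600 every 30 min during 37 °C, 175 rpm culture. Two-fold protein series 50-12.5 μg/mL final, triplicate wells, against 5×10^5 CFU/mL of LB-washed mid-log cells.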

[2] = test system: Enterobacter cloacae; assay: MIC against Gram-negative bacteria: Enterobacter cloacae; conditions: for MIC against E. cloacae / MIC E. cloacae / MIC (μg/mL) E. cloacae: 5×10^5 CFU/mL
Outline: (§1)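 Two-fold serial dilutions of each purified human EGF domain protein, three replicate wells per level, were combined with bacteria at a final 5×10^5 CFU/mL in LB. Cultures were shaken at 175 rpm, 37° C. The MIC was taken as the minimum concentration preventing growth.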

[3] = test system: Citrobacter diversus; assay: MIC against Gram-negative bacteria: Citrobacter diversus; conditions: for MIC against C. diversus / MIC C. diversus / MIC (μg/mL) C. diversus: 5×10^5 CFU/mL
Outline: as §1

[4] = test system: Pseudomonas aeruginosa; assay: MIC against Gram-negative bacteria: Pseudomonas aeruginosa; conditions: for MIC against P. aeruginosa / MIC P. aeruginosa / MIC (μg/mL) P. aeruginosa: 5×10^5 CFU/mL
Outline: as §1

[5] = test system: Klebsiella pneumonia; assay: MIC against Gram-negative bacteria: Klebsiella pneumonia; conditions: for MIC against K. pneumonia / MIC K. pneumonia / MIC (μg/mL) K. pneumonia: 5×10^5 CFU/mL
Outline: as §1

[6] = test system: Proteus vulgaris; assay: MIC against Gram-negative bacteria: Proteus vulgaris; conditions: for MIC against P. vulgaris / MIC P. vulgaris / MIC (μg/mL) P. vulgaris: 5×10^5 CFU/mL
Outline: as §1

[7] = test system: Proteus mirabilis; assay: MIC against Gram-negative bacteria: Proteus mirabilis; conditions: for MIC against P. mirabilis / MIC P. mirabilis / MIC (μg/mL) P. mirabilis: 5×10^5 CFU/mL
Outline: as §1

[8] = test system: E. coli BL21; assay: MIC against Gram-negative bacteria: E. coli BL21; conditions: for MIC against E. coli BL21 / MIC E. coli BL21 / MIC (μg/mL) E. coli BL21: 5×10^5 CFU/mL
Outline: as §1

[9] = test system: Moraxella catarrhalis; assay: MIC against Gram-negative bacteria: Moraxella catarrhalis; conditions: for MIC against M. catarrhalis / MIC M. catarrhalis / MIC (μg/mL) M. catarrhalis: 5×10^5 CFU/mL
Outline: as §1

[10] = test system: Aeromonas hydrophila; assay: MIC against Gram-negative bacteria: Aeromonas hydrophila; conditions: for MIC against A. hydrophila / MIC A. hydrophila / MIC (μg/mL) A. hydrophila: 5×10^5 CFU/mL
Outline: as §1

[11] = test system: Serratia marcescens; assay: MIC against Gram-negative bacteria: Serratia marcescens; conditions: for MIC against S. marcescens / MIC S. marcescens / MIC (μg/mL) S. marcescens: 5×10^5 CFU/mL
Outline: as §1

[12] = E. coli BL21, 10 h cultivation at 37° C.
[13] = 10 h cultivation at 37° C., two-fold serial dilution
[14] = Enterobacter cloacae, 96-well plate, 37° C., 10 h
[15] = Citrobacter diversus, 96-well plate, 37° C., 10 h
[16] = Pseudomonas aeruginosa, 96-well plate, 37° C., 10 h
[17] = Klebsiella pneumonia, 96-well plate, 37° C., 10 h
[18] = Proteus vulgaris, 96-well plate, 37° C., 10 h
[19] = Proteus mirabilis, 96-well plate, 37° C., 10 h
[20] = E. coli BL21, 96-well plate, 37° C., 10 h
[21] = Moraxella catarrhalis, 96-well plate, 37° C., 10 h
[22] = Aeromonas hydrophila, 96-well plate, 37° C., 10 h
[23] = Serratia marcescens, 96-well plate, 37° C., 10 h

PRT1472 (LEHPCASLCCGHGTCIDGIGSFSCDCRSGWEGRFCQ; listed as Homo sapiens)
MIC [1]: 50 µg/mL | MIC against E. cloacae ([2]; Enterobacter cloacae, 10 h cultivation at 37° C.): 12.5 µg/mL | MIC against C. diversus ([3]; Citrobacter diversus, 10 h cultivation at 37° C.): 12.5 µg/mL | MIC against P. aeruginosa ([4]; Pseudomonas aeruginosa, 10 h cultivation at 37° C.): 25 µg/mL | MIC against K. pneumonia ([5]; Klebsiella pneumonia, 10 h cultivation at 37° C.): 25 µg/mL | MIC against P. vulgaris ([6]; Proteus vulgaris, 10 h cultivation at 37° C.): 25 µg/mL | MIC against P. mirabilis ([7]; Proteus mirabilis, 10 h cultivation at 37° C.): 12.5 µg/mL | MIC against E. coli BL21 [8, 12]: 50 µg/mL | MIC against M. catarrhalis ([9]; Moraxella catarrhalis, 10 h cultivation at 37° C.): 25 µg/mL | MIC against A. hydrophila ([10]; Aeromonas hydrophila, 10 h cultivation at 37° C.): 25 µg/mL | MIC against S. marcescens ([11]; Serratia marcescens, 10 h cultivation at 37° C.): 50 µg/mL

PRT1147 (ELDACSFKPCKNNGSCINKRENWDEQAYECVCHPPFTGKNCS; listed as Homo sapiens)
MIC [1]: 50 µg/mL | MIC E. cloacae [2, 13]: 50 µg/mL | MIC C. diversus [3, 13]: 25 µg/mL | MIC P. aeruginosa [4, 13]: 50 µg/mL | MIC K. pneumonia [5, 13]: 12.5 µg/mL | MIC P. vulgaris [6, 13]: 50 µg/mL | MIC P. mirabilis [7, 13]: 25 µg/mL | MIC E. coli BL21 [8, 13]: 12.5 µg/mL | MIC M. catarrhalis [9, 13]: 12.5 µg/mL | MIC A. hydrophila [10, 13]: 25 µg/mL | MIC S. marcescens [11, 13]: 25 µg/mL

PRT513 (CECDPYGSLPVPCDPVTGFCTCRPGATGRKCDGCKHWHAREGWECVF; listed as Homo sapiens)
MIC [1]: 50 µg/mL | MIC against E. cloacae ([2]; 96-well plate, 37° C., 10 h): 25 µg/mL | MIC against C. diversus ([3]; 96-well plate, 37° C., 10 h): 25 µg/mL | MIC against P. aeruginosa ([4]; 96-well plate, 37° C., 10 h): 50 µg/mL | MIC against K. pneumonia ([5]; 96-well plate, 37° C., 10 h): 12.5 µg/mL | MIC against P. vulgaris ([6]; 96-well plate, 37° C., 10 h): 12.5 µg/mL | MIC against P. mirabilis ([7]; 96-well plate, 37° C., 10 h): 50 µg/mL | MIC against E. coli BL21 ([8]; 96-well plate, 37° C., 10 h): 12.5 µg/mL | MIC against M. catarrhalis ([9]; 96-well plate, 37° C., 10 h): 12.5 µg/mL | MIC against A. hydrophila ([10]; 96-well plate, 37° C., 10 h): 50 µg/mL | MIC against S. marcescens ([11]; 96-well plate, 37° C., 10 h): 12.5 µg/mL

PRT1254 (DVDECSEGTDDCHIDAICQNTPKSYKCLCKPGYKGEGKQCE; listed as Homo sapiens)
MIC [1]: 12.5 µg/mL | MIC against E. cloacae [2, 14]: 12.5 µg/mL | MIC against C. diversus [3, 15]: 12.5 µg/mL | MIC against P. aeruginosa [4, 16]: 50 µg/mL | MIC against K. pneumonia [5, 17]: 25 µg/mL | MIC against P. vulgaris [6, 18]: 25 µg/mL | MIC against P. mirabilis [7, 19]: 12.5 µg/mL | MIC against E. coli BL21 [8, 20]: 25 µg/mL | MIC against M. catarrhalis [9, 21]: 50 µg/mL | MIC against A. hydrophila [10, 22]: 50 µg/mL | MIC against S. marcescens [11, 23]: 50 µg/mL

PRT644 (DINECQLQGVCPNGECLNTMGSYRCTCKIGFGPDPTFS; listed as Homo sapiens)
MIC [1]: 25 µg/mL | MIC E. cloacae ([2]; 96-well plate, 37° C., 10 h): 25 µg/mL | MIC C. diversus ([3]; 96-well plate, 37° C., 10 h): 25 µg/mL | MIC P. aeruginosa ([4]; 96-well plate, 37° C., 10 h): 25 µg/mL | MIC K. pneumonia ([5]; 96-well plate, 37° C., 10 h): 50 µg/mL | MIC P. vulgaris ([6]; 96-well plate, 37° C., 10 h): 100 µg/mL | MIC P. mirabilis ([7]; 96-well plate, 37° C., 10 h): 25 µg/mL | MIC E. coli BL21 ([8]; 96-well plate, 37° C., 10 h): 12.5 µg/mL | MIC M. catarrhalis ([9]; 96-well plate, 37° C., 10 h): 50 µg/mL | MIC A. hydrophila ([10]; 96-well plate, 37° C., 10 h): 12.5 µg/mL | MIC S. marcescens ([11]; 96-well plate, 37° C., 10 h): 25 µg/mL

PRT1120 (DEDECASSPCQHGGRCLQRSDPALYGGVQAAFPGAFSFRHAAGFLCHCPPGFEGADCG; listed as Homo sapiens)
MIC [1]: 25 µg/mL | MIC E. cloacae [2, 13]: 25 µg/mL | MIC C. diversus [3, 13]: 50 µg/mL | MIC P. aeruginosa [4, 13]: 25 µg/mL | MIC K. pneumonia [5, 13]: 50 µg/mL | MIC P. vulgaris [6, 13]: 12.5 µg/mL | MIC P. mirabilis [7, 13]: 50 µg/mL | MIC E. coli BL21 [8, 13]: 12.5 µg/mL | MIC M. catarrhalis [9, 13]: 12.5 µg/mL | MIC A. hydrophila [10, 13]: 12.5 µg/mL | MIC S. marcescens [11, 13]: 12.5 µg/mL

PRT47 (CTCSGHANICHLHTGKCFCTTKGIKGDQCQLCDSENRYVGNPLRGTCYY; listed as Homo sapiens)
MIC [1]: 12.5 µg/mL | MIC (μg/mL) E. cloacae [2, 14]: 25 µg/mL | MIC (μg/mL) C. diversus [3, 15]: 50 µg/mL | MIC (μg/mL) P. aeruginosa [4, 16]: 12.5 µg/mL | MIC (μg/mL) K. pneumonia [5, 17]: 12.5 µg/mL | MIC (μg/mL) P. vulgaris [6, 18]: 50 µg/mL | MIC (μg/mL) P. mirabilis [7, 19]: 25 µg/mL | MIC (μg/mL) E. coli BL21 [8, 20]: 25 µg/mL | MIC (μg/mL) M. catarrhalis [9, 21]: 12.5 µg/mL | MIC (μg/mL) A. hydrophila [10, 22]: 12.5 µg/mL | MIC (μg/mL) S. marcescens [11, 23]: 12.5 µg/mL

PRT70 (VDDPCTSSPCPPNSRCHDAWEDYSCVCDKGYLGINC; listed as Homo sapiens)
MIC [1]: 12.5 µg/mL | MIC (μg/mL) E. cloacae [2, 14]: 12.5 µg/mL | MIC (μg/mL) C. diversus [3, 15]: 12.5 µg/mL | MIC (μg/mL) P. aeruginosa [4, 16]: 12.5 µg/mL | MIC (μg/mL) K. pneumonia [5, 17]: 25 µg/mL | MIC (μg/mL) P. vulgaris [6, 18]: 12.5 µg/mL | MIC (μg/mL) P. mirabilis [7, 19]: 50 µg/mL | MIC (μg/mL) E. coli BL21 [8, 20]: 12.5 µg/mL | MIC (μg/mL) M. catarrhalis [9, 21]: 12.5 µg/mL | MIC (μg/mL) A. hydrophila [10, 22]: 25 µg/mL | MIC (μg/mL) S. marcescens [11, 23]: 25 µg/mL

PRT1336 (DCNQCPGGFSNPCSGNGQCADSLGGNGTCICEEGFQGSQCQ; listed as Homo sapiens)
MIC [1]: 12.5 µg/mL | MIC against E. cloacae [2, 14]: 25 µg/mL | MIC against C. diversus [3, 15]: 50 µg/mL | MIC against P. aeruginosa [4, 16]: 12.5 µg/mL | MIC against K. pneumonia [5, 17]: 50 µg/mL | MIC against P. vulgaris [6, 18]: 12.5 µg/mL | MIC against P. mirabilis [7, 19]: 50 µg/mL | MIC against E. coli BL21 [8, 20]: 50 µg/mL | MIC against M. catarrhalis [9, 21]: 12.5 µg/mL | MIC against A. hydrophila [10, 22]: 12.5 µg/mL | MIC against S. marcescens [11, 23]: 50 µg/mL

PRT1040 (AAHPCVRAPCAHGGSCRPRKEGYDCDCPLGFEGLHCQ; listed as Homo sapiens)
MIC [1]: 12.5 µg/mL | MIC ([2]; E. cloacae, 10 h cultivation at 37° C.): 50 µg/mL | MIC ([3]; C. diversus, 10 h cultivation at 37° C.): 50 µg/mL | MIC ([4]; P. aeruginosa, 10 h cultivation at 37° C.): 50 µg/mL | MIC ([5]; K. pneumonia, 10 h cultivation at 37° C.): 25 µg/mL | MIC ([6]; P. vulgaris, 10 h cultivation at 37° C.): 25 µg/mL | MIC ([7]; P. mirabilis, 10 h cultivation at 37° C.): 50 µg/mL | MIC [8, 12]: 50 µg/mL | MIC ([9]; M. catarrhalis, 10 h cultivation at 37° C.): 25 µg/mL | MIC ([10]; A. hydrophila, 10 h cultivation at 37° C.): 12.5 µg/mL | MIC ([11]; S. marcescens, 10 h cultivation at 37° C.): 50 µg/mL
